How the values were obtained:
A673 (Ewing's Sarcoma) [1] = assay: Bliss excess, mean over the matrix (fraction); higher = more synergy
In short: (§1)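 After 24 hours at 37°C and 5% CO2 in 1536-well plates, cells in DMEM/F12 or RPMI plus 10% FBS received two-drug dose matrices for 72 hours. Viability came from CellTiter-Glo 2.0 luminescence and was scaled as inhibition, anchored at 0 by vehicle wells and at 1 by blank wells. Combination Emax is taken as the second-highest inhibition in the matrix, and Bliss excess as the observed combination effect less EA + EB − EA·EB, with EA and EB the single-agent effects.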

[2] = tested on: Hs-746T (Gastric Carcinoma); assay: as above
In short: as §1

[3] = tested on: LNZTA3WT4 (Low Grade Glioma); assay: as above
In short: as §1

[4] = tested on: NCI-H209 (Small Cell Lung Carcinoma); assay: as above
In short: as §1

[5] = tested on: SW1573 (Lung Adenocarcinoma); assay: as above
In short: as §1

A673 (Ewing's Sarcoma) [6] = assay: combination Emax (second highest fraction inhibited in the dose matrix, 72 h); higher = more inhibition; extreme values may be limits of the assay
In short: as §1

[7] = tested on: BE-13 (T-Lymphoblastic Leukemia); assay: as above
In short: as §1

CAL-72 (Osteosarcoma) = assay: as above
In short: as §1

[8] = tested on: ESS-1 (Other Solid Carcinomas); assay: as above
In short: as §1

EW-11 (Ewing's Sarcoma) = assay: as above
In short: as §1

[9] = tested on: HuCCT1 (Biliary Tract Carcinoma); assay: as above
In short: as §1

[10] = tested on: KMRC-20 (Kidney Carcinoma); assay: as above
In short: as §1

[11] = tested on: KYAE-1 (Esophageal Adenocarcinoma); assay: as above
In short: as §1

[12] = tested on: LS-123 (Colorectal Carcinoma); assay: as above
In short: as §1

NCI-H2052 (Mesothelioma) = assay: as above
In short: as §1

[13] = tested on: NUGC-4 (Gastric Carcinoma); assay: as above
In short: as §1

[14] = tested on: OE21 (Esophageal Squamous Cell Carcinoma); assay: as above
In short: as §1

[15] = tested on: SAS (Oral Cavity Carcinoma); assay: as above
In short: as §1

[16] = tested on: SW1710 (Bladder Carcinoma); assay: as above
In short: as §1

[17] = tested on: WSU-NHL (B-Cell Non-Hodgkin's Lymphoma); assay: as above
In short: as §1
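Wherever Bliss excess, mean over the matrix is given: after 72 h of two-drug dosing.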

Row | Structure (SMILES) | Bliss excess (A673 (Ewing's Sarcoma) [1]) | Bliss excess [2] | Bliss excess [3] | Bliss excess [4] | Bliss excess [5] | combination Emax (A673 (Ewing's Sarcoma) [6]) | combination Emax [7] | combination Emax (CAL-72 (Osteosarcoma)) | combination Emax [8] | combination Emax (EW-11 (Ewing's Sarcoma)) | combination Emax [9] | combination Emax [10] | combination Emax [11] | combination Emax [12] | combination Emax (NCI-H2052 (Mesothelioma)) | combination Emax [13] | combination Emax [14] | combination Emax [15] | combination Emax [16] | combination Emax [17]
1 | NC1(C(=O)N[C@@H](CCO)c2ccc(Cl)cc2)CCN(c2ncnc3[nH]ccc23)CC1 [Capivasertib] + Cn1cnc2c(F)c(Nc3ccc(Br)cc3Cl)c(C(=O)NOCCO)cc21 [Selumetinib] (first compound max 10 µM, 7x7, partner max 10 µM) | 0.0877 | 0.0736 | -0.0292 | -0.0108 | -0.0111 | 0.469 | 0.276 | 0.305 | 0.526 | 0.453 | 0.717 | 0.392 | 0.13 | 0.555 | 0.443 | 0.329 | 0.924 | 0.615 | 0.409 | 0.92
2 | COc1cccc2c1C(=O)c1c(O)c3c(c(O)c1C2=O)C[C@@](O)(C(=O)CO)C[C@@H]3O[C@H]1C[C@H](N)[C@H](O)[C@H](C)O1 [Doxorubicin] + Cc1cc2ncnn2cc1Nc1ncc2c(n1)n(C1CCOCC1)c(=O)n2C [AZD7648] (first compound max 1 µM, 7x7, partner max 10 µM) | 0.0816 | 0.0464 | 0.016 | 0.129 | -0.0042 | 0.888 | 0.965 | 0.663 | 1 | 0.893 | 0.746 | 0.524 | 0.879 | 0.87 | 0.745 | 0.393 | 0.593 | 0.921 | 0.665 | 1
3 | CS(=O)(=O)CCNCc1ccc(-c2ccc3ncnc(Nc4ccc(OCc5cccc(F)c5)c(Cl)c4)c3c2)o1 [Lapatinib] + C[C@@H](Oc1cc(-c2cnn(C3CCNCC3)c2)cnc1N)c1c(Cl)ccc(F)c1Cl [Crizotinib] (first compound max 10 µM, 7x7, partner max 10 µM) | -0.0546 | 0.0079 | -0.0665 | -0.003 | -0.0788 | 0.808 | 0.988 | 0.906 | 0.917 | 0.936 | 0.883 | 0.916 | 0.842 | 0.746 | 0.61 | 0.808 | 0.936 | 0.825 | 0.846 | 0.966
4 | CC(=O)c1c(C)c2cnc(Nc3ccc(N4CCNCC4)cn3)nc2n(C2CCCC2)c1=O [Palbociclib] + CC1(C)CCC(CN2CCN(c3ccc(C(=O)NS(=O)(=O)c4ccc(NCC5CCOCC5)c([N+](=O)[O-])c4)c(Oc4cnc5[nH]ccc5c4)c3)CC2)=C(c2ccc(Cl)cc2)C1 [Venetoclax] (first compound max 10 µM, 7x7, partner max 1 µM) | -0.0426 | -0.0117 | -0.0032 | 0.0824 | -0.0108 | 0.136 | 0.588 | 0.345 | 0.294 | 0.203 | 0.309 | 0.214 | 0.132 | 0.138 | 0.133 | 0.194 | 0.229 | 0.47 | 0.246 | 0.92
5 | CC(=O)c1c(C)c2cnc(Nc3ccc(N4CCNCC4)cn3)nc2n(C2CCCC2)c1=O [Palbociclib] + Cc1c2c(nn1C)CSCc1cc(n(C)n1)CSc1cc(c3ccccc3c1)OCCCc1c(C(=O)O)n(C)c3c-2c(Cl)ccc13 [AZD5991] (first compound max 10 µM, 7x7, partner max 1 µM) | -0.0903 | -0.0293 | 0.0064 | -0.0107 | -0.0431 | 0.453 | 0.815 | 0.441 | 0.266 | 0.605 | 0.32 | 0.291 | 0.126 | 0.207 | 0.304 | 0.252 | 0.393 | 0.538 | 0.29 | 0.928
6 | CC(=O)c1c(C)c2cnc(Nc3ccc(N4CCNCC4)cn3)nc2n(C2CCCC2)c1=O [Palbociclib] + Cn1cnc2c(F)c(Nc3ccc(Br)cc3Cl)c(C(=O)NOCCO)cc21 [Selumetinib] (first compound max 10 µM, 7x7, partner max 10 µM) | -0.009 | -0.0475 | -0.0459 | -0.0528 | -0.0288 | 0.177 | 0.691 | 0.361 | 0.283 | 0.168 | 0.556 | 0.158 | 0.124 | 0.428 | 0.189 | 0.392 | 0.54 | 0.711 | 0.339 | 0.886
7 | COc1cccc(OCCCN)c1-c1cc(Nc2cnc(C#N)cn2)n[nH]1 [Prexasertib] + C=CCn1c(=O)c2cnc(Nc3ccc(N4CCN(C)CC4)cc3)nc2n1-c1cccc(C(C)(C)O)n1 [AZD1775] (first compound max 1 µM, partner max 1 µM) | 0.0752 | -0.0572 | 0.133 | 0.0444 | 0.0456 | 0.946 | 1 | 0.891 | 1 | 0.683 | 0.827 | 0.885 | 0.795 | 0.828 | 0.699 | 0.555 | 0.733 | 0.969 | 0.823 | 1
8 | COc1cccc(OCCCN)c1-c1cc(Nc2cnc(C#N)cn2)n[nH]1 [Prexasertib] + CCc1c2c(nc3ccc(O)cc13)-c1cc3c(c(=O)n1C2)COC(=O)[C@]3(O)CC [SN-38] (first compound max 1 µM, 7x7, partner max 0.3 µM) | -0.0105 | -0.0006 | 0.0266 | 0.0053 | -0.0144 | 0.998 | 1 | 0.949 | 1 | 0.749 | 0.875 | 0.982 | 0.79 | 0.871 | 0.853 | 0.484 | 0.813 | 0.999 | 0.86 | 1
9 | COc1cccc(OCCCN)c1-c1cc(Nc2cnc(C#N)cn2)n[nH]1 [Prexasertib] + CN(C)CCCOc1ccc(-c2ccc3ncc4c(c3c2)n(C2CCOCC2)c(=O)n4C)cn1 [AZD0156] (first compound max 1 µM, 7x7, partner max 1 µM) | 0.0133 | -0.0078 | -0.0321 | 0.0016 | -0.0129 | 0.905 | 0.965 | 0.847 | 1 | 0.756 | 0.819 | 0.924 | 0.594 | 0.752 | 0.556 | 0.49 | 0.726 | 0.926 | 0.794 | 1
10 | COc1cccc(OCCCN)c1-c1cc(Nc2cnc(C#N)cn2)n[nH]1 [Prexasertib] + C[C@@H]1COCCN1C2=NC(=NC(=C2)C3(CC3)[S@](=N)(=O)C)C4=C5C=CNC5=NC=C4 [AZD6738] (first compound max 1 µM, 7x7, partner max 10 µM) | -0.014 | -0.033 | -0.0422 | -0.0214 | -0.0066 | 0.883 | 0.967 | 0.869 | 1 | 0.734 | 0.835 | 0.881 | 0.573 | 0.796 | 0.537 | 0.543 | 0.745 | 0.943 | 0.771 | 1
11 | COc1cccc(OCCCN)c1-c1cc(Nc2cnc(C#N)cn2)n[nH]1 [Prexasertib] + Cc1cc2ncnn2cc1Nc1ncc2c(n1)n(C1CCOCC1)c(=O)n2C [AZD7648] (first compound max 1 µM, 7x7, partner max 10 µM) | -0.0112 | -0.0512 | -0.064 | 0 | -0.0225 | 0.875 | 0.952 | 0.994 | 1 | 0.742 | 0.83 | 0.858 | 0.467 | 0.764 | 0.649 | 0.493 | 0.788 | 0.926 | 0.728 | 1
12 | COc1cccc(OCCCN)c1-c1cc(Nc2cnc(C#N)cn2)n[nH]1 [Prexasertib] + O=C(c1cc(Cc2n[nH]c(=O)c3ccccc23)ccc1F)N1CCN(C(=O)C2CC2)CC1 [Olaparib] (first compound max 1 µM, 7x7, partner max 10 µM) | -0.0452 | -0.0198 | -0.0274 | -0.0442 | 0.001 | 0.923 | 0.978 | 0.81 | 1 | 0.792 | 0.844 | 0.893 | 0.56 | 0.771 | 0.589 | 0.415 | 0.678 | 0.93 | 0.761 | 1
13 | CCc1c2c(nc3ccc(O)cc13)-c1cc3c(c(=O)n1C2)COC(=O)[C@]3(O)CC [SN-38] + CN(C)CCCOc1ccc(-c2ccc3ncc4c(c3c2)n(C2CCOCC2)c(=O)n4C)cn1 [AZD0156] (first compound max 0.3 µM, 7x7, partner max 1 µM) | 0.0777 | -0.029 | 0.0092 | -0.0073 | 0.0139 | 0.996 | 0.748 | 0.774 | 1 | 0.739 | 0.508 | 0.827 | 0.105 | 0.481 | 0.837 | 0.287 | 0.678 | 1 | 0.312 | 1

— the supplement of paper PMC11061612
